18 molecules from patent publication US20260159512A1, “BCAT2 INHIBITORS” (AGIOS PHARMACEUTICALS, INC., priority 2021, published 2026) can be followed below.

By IC50 is commonly meant the point on the concentration scale where inhibition reaches its midpoint.

Conditions in all cases: average where tested multiple times
For test [1], the target named is T1, BCAT2 (Homo sapiens, UniProt O15382).
T1 sequence (O15382 28-392): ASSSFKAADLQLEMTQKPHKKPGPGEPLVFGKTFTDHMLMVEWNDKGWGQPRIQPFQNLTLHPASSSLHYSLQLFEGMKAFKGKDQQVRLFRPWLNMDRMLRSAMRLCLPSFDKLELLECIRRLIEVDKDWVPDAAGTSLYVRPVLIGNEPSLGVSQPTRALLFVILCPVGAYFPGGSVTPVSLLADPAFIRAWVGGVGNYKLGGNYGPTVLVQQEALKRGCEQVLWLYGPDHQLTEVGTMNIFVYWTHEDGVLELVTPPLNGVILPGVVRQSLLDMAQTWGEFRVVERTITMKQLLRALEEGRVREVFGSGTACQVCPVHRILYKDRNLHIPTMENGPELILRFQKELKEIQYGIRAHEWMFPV
The experiment in a line: BCAT2 in vitro enzyme inhibition assay (resazurin/diaphorase-coupled fluorescence). Type of test: biochemical. The procedure, abridged:
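Coupled fluorescence readout: glutamate formed from L-leucine/α-ketoglutarate transamination drives GDH/NAD/diaphorase reduction of resazurin (Ex 540/Em 590). Human BCAT2 was first exposed 1 h at room temperature to compound, top final 100 μM in 3-fold, 10-point series; substrate reaction ran 1 h before SDS quench, in technical duplicate with DMSO max and enzyme-free min controls.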

Another test concerns the target T2, hBCAT1 (Homo sapiens, UniProt P54687).
T2 sequence (P54687 1-386): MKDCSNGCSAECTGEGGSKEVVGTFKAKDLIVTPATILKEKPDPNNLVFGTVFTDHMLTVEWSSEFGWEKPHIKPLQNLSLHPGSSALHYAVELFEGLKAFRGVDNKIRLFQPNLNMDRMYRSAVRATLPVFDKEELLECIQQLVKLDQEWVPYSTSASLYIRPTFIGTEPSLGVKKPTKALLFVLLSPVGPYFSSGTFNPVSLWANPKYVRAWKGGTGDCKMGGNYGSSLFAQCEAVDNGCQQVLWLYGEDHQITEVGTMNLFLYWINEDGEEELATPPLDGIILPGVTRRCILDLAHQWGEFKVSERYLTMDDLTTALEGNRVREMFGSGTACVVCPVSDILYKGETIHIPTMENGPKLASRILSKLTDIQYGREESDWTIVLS
Kind of test: BCAT1 in vitro enzyme inhibition assay (resazurin/diaphorase-coupled fluorescence). Type of test: biochemical. Summed up: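 Human BCAT1 activity read by resazurin/diaphorase-coupled fluorescence. Compounds added from 50× DMSO stocks at 1:50, giving 10-point 3-fold titrations from 100 μM top final concentration. Run in technical duplicate; repeat tests averaged.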
Background: Resazurin is reduced to fluorescent resorufin, in cell work by metabolically active cells.

In test [2] the target is T1, BCAT2. Kind of test: BCAT2 in vitro cell inhibition using engineered A549 cells (KMV cell assay, 13C6-KMV by LC-MS/MS). Type of test: cell-based. More on the design: The result was an engineered A549 cell line that expressed endogenous BCAT2; endogenous in cells; host or cells: A549 cells with MUT and BCAT1 knocked out by CRISPR/CAS9; key to BCAT2 Cell Inhibition: A: less than or equal to 0.100 μM; B: greater than 0.100 and less than or equal to 0.500 μM; C: greater than 0.500 and less than or equal to 1.000 μM; d: greater than 1.000 μM; E: no fit.

Molecules are shown by their SMILES.

With `CC(C)Cc1nc2cnc(-c3ncon3)cc2n1[C@@H]1CCC[C@H](NC(=O)c2ncc(Cl)s2)C1` [Example 321, 5-chloro-N-((1S,3R)-3-(2-isobutyl-6-(1,2,4-oxadiazol-3-yl)-1H-imidazo[4,5-c]pyridin-1-yl)cyclohexyl)thiazole-2-carboxamide], the figures for the IC50 on BCAT2 [1], on hBCAT1 and on BCAT2 [2] were at most 100 nM, 500 to 1000 nM and 500 to 1000 nM, respectively.

As to `COc1cc2c(cn1)nc(-c1ccccc1F)n2[C@@H]1C[C@@H](O)C[C@H](NC(=O)c2ncc(Cl)s2)C1` [Example 278, 5-chloro-N-((1R,3S,5S)-3-(2-(2-fluorophenyl)-6-methoxy-1H-imidazo[4,5-c]pyridin-1-yl)-5-hydroxycyclohexyl)thiazole-2-carboxamide], the figures for the half-maximal inhibitory concentration (IC50) at BCAT2 [1], at hBCAT1 and on BCAT2 [2] were at most 100 nM, below 500 nM and 100 to 500 nM, respectively.

With `CC(C)Cc1nc2cnc(-c3cccc(F)n3)cc2n1[C@@H]1CCC[C@H](NC(=O)c2ncc(Cl)s2)[C@H]1O` [Example 209, 5-chloro-N-((1S,2R,3R)-3-(6-(6-fluoropyridin-2-yl)-2-isobutyl-1H-imidazo[4,5-c]pyridin-1-yl)-2-hydroxycyclohexyl)thiazole-2-carboxamide], the IC50 was at most 100 nM against BCAT2 [1], below 500 nM against hBCAT1 and 100 to 500 nM against BCAT2 [2].

Take `CO[C@@H]1C[C@H](NC(=O)c2ncc(Cl)s2)C[C@H](n2c(CC(C)C)nc3cnc(-n4nccn4)cc32)C1` (single isomer, unassigned) [Example 439]: the IC50 was at most 100 nM against BCAT2 [1], below 500 nM against hBCAT1 and at most 100 nM against BCAT2 [2].

Consider `CC(C)Cc1nc2cnc(-c3cccc(F)n3)cc2n1[C@@H]1CCC[C@H](NC(=O)c2ncc(Cl)s2)C1` [Example 160, 5-chloro-N-((1S,3R)-3-(6-(6-fluoropyridin-2-yl)-2-isobutyl-1H-imidazo[4,5-c]pyridin-1-yl)cyclohexyl)thiazole-2-carboxamide], for which the IC50 is at most 100 nM against BCAT2 [1], 500 to 1000 nM against hBCAT1 and 500 to 1000 nM against BCAT2 [2].

In the case of `CO[C@H]1C[C@H](NC(=O)c2ncc(Cl)s2)C[C@H](n2c(CC(C)(C)C)nc3cnc(-c4ccccn4)cc32)C1` (single isomer, unassigned) [Example 442], the IC50 against BCAT2 [1] was at most 100 nM; against hBCAT1 it was 1000 to 5000 nM; on BCAT2 [2], 100 to 500 nM.

With `CS(=O)(=O)N1C[C@H](NC(=O)c2ncc(Cl)s2)C[C@H](n2c(-c3ccccc3F)nc3cnc(-c4nc[nH]n4)cc32)C1` [Example 460, 5-chloro-N-((3R,5S)-5-(2-(2-fluorophenyl)-6-(1H-1,2,4-triazol-3-yl)-1H-imidazo[4,5-c]pyridin-1-yl)-1-(methylsulfonyl)piperidin-3-yl)thiazole-2-carboxamide], the IC50 against BCAT2 [1] is at most 100 nM; at hBCAT1 it was below 500 nM; against BCAT2 [2], at most 100 nM.

Turning to `O=C(N[C@H]1CCC[C@@H](n2c(-c3ncccc3F)nc3cnc(N4CCCC4=O)cc32)C1)c1ncc(C(F)F)s1` [Example 49, 5-(difluoromethyl)-N-((1S,3R)-3-(2-(3-fluoropyridin-2-yl)-6-(2-oxopyrrolidin-1-yl)-1H-imidazo[4,5-c]pyridin-1-yl)cyclohexyl)thiazole-2-carboxamide], the IC50 is 100 to 500 nM against BCAT2 [1] and above 5000 nM against hBCAT1. On BCAT2 [2], the “BCAT2 Cell Inhibition” value is listed as “E”.

Regarding `N#Cc1cccc(-c2nc3cnc(-c4nc[nH]n4)cc3n2[C@@H]2CCC[C@H](NC(=O)c3ccc(Cl)s3)C2)c1F` [Example 365, 5-chloro-N-((1S,3R)-3-(2-(3-cyano-2-fluorophenyl)-6-(1H-1,2,4-triazol-3-yl)-1H-imidazo[4,5-c]pyridin-1-yl)cyclohexyl)thiophene-2-carboxamide], the IC50 is at most 100 nM at BCAT2 [1], 1000 to 5000 nM on hBCAT1 and above 1000 nM against BCAT2 [2].

Turning to `O=C(N[C@H]1CCC[C@@H](n2c(-c3ccccn3)nc3cnc(-c4nc[nH]n4)cc32)C1)c1ncc(C(F)F)s1` [Example 53, 5-(difluoromethyl)-N-((1S,3R)-3-(2-(pyridin-2-yl)-6-(1H-1,2,4-triazol-3-yl)-1H-imidazo[4,5-c]pyridin-1-yl)cyclohexyl)thiazole-2-carboxamide], the IC50 is at most 100 nM on BCAT2 [1], below 500 nM on hBCAT1 and at most 100 nM against BCAT2 [2].

In the case of `O=C(N[C@H]1CCC[C@@H](n2c(-c3ccccc3F)nc3cnc(-c4ccn[nH]4)cc32)C1)c1ncc(C(F)F)s1` [Example 77, 5-(difluoromethyl)-N-((1S,3R)-3-(2-(2-fluorophenyl)-6-(1H-pyrazol-5-yl)-1H-imidazo[4,5-c]pyridin-1-yl)cyclohexyl)thiazole-2-carboxamide], the IC50 was at most 100 nM on BCAT2 [1], below 500 nM against hBCAT1 and at most 100 nM at BCAT2 [2].

`CC(=O)N1CC(NC(=O)c2ncc(C(F)F)s2)CC(n2c(-c3ccccc3F)nc3cnc(-n4nccn4)cc32)C1` (stereo not drawn) [Example 123, N-(1-acetyl-5-(2-(2-fluorophenyl)-6-(2H-1,2,3-triazol-2-yl)-1H-imidazo[4,5-c]pyridin-1-yl)piperidin-3-yl)-5-(difluoromethyl)thiazole-2-carboxamide]: the results for the IC50 against BCAT2 [1], against hBCAT1 and on BCAT2 [2] were at most 100 nM, below 500 nM and at most 100 nM, respectively.

For `O=C(N[C@H]1CCC[C@@H](n2c(Oc3ccccc3F)nc3cnc(-c4nc[nH]n4)cc32)C1)c1ncc(Cl)s1` [Example 192, 5-chloro-N-((1S,3R)-3-(2-(2-fluorophenoxy)-6-(1H-1,2,4-triazol-3-yl)-1H-imidazo[4,5-c]pyridin-1-yl)cyclohexyl)thiazole-2-carboxamide], the IC50 is at most 100 nM against BCAT2 [1], 1000 to 5000 nM at hBCAT1 and above 1000 nM on BCAT2 [2].

For `CC(C)Cc1nc2cnc(-c3nc4ccccc4o3)cc2n1[C@@H]1CCC[C@H](NC(=O)c2ncc(Cl)s2)C1` [Example 324, N-((1S,3R)-3-(6-(benzo[d]oxazol-2-yl)-2-isobutyl-1H-imidazo[4,5-c]pyridin-1-yl)cyclohexyl)-5-chlorothiazole-2-carboxamide], the IC50 against BCAT2 [1] is at most 100 nM; against hBCAT1, 1000 to 5000 nM; against BCAT2 [2], 100 to 500 nM.

Turning to `CC(=O)N1C[C@H](NC(=O)c2ncc(C(F)F)s2)C[C@H](n2c(-c3ccccc3F)nc3cnc(-c4ncco4)cc32)C1` [Example 128, N-((3R,5S)-1-acetyl-5-(2-(2-fluorophenyl)-6-(oxazol-2-yl)-1H-imidazo[4,5-c]pyridin-1-yl)piperidin-3-yl)-5-(difluoromethyl)thiazole-2-carboxamide], the IC50 on BCAT2 [1] is at most 100 nM; against hBCAT1, below 500 nM; against BCAT2 [2], at most 100 nM.

For `O=C(N[C@H]1CCC[C@@H](n2c(-c3ccccc3F)nc3cnc(-c4ncn(C(F)F)n4)cc32)C1)c1ncc(Cl)s1` [Example 378, 5-chloro-N-((1S,3R)-3-(6-(1-(difluoromethyl)-1H-1,2,4-triazol-3-yl)-2-(2-fluorophenyl)-1H-imidazo[4,5-c]pyridin-1-yl)cyclohexyl)thiazole-2-carboxamide], the concentration for half-maximal inhibition (IC50) against BCAT2 [1] is at most 100 nM; at hBCAT1, below 500 nM; on BCAT2 [2], at most 100 nM.

For the molecule `O=C(N[C@H]1CCC[C@@H](n2c(-c3ccccc3F)nc3cnc(-n4nccn4)cc32)C1)c1ccc(Cl)s1` [Example 72, 5-chloro-N-((1S,3R)-3-(2-(2-fluorophenyl)-6-(2H-1,2,3-triazol-2-yl)-1H-imidazo[4,5-c]pyridin-1-yl)cyclohexyl)thiophene-2-carboxamide], the values for the IC50 on BCAT2 [1], against hBCAT1 and at BCAT2 [2] were at most 100 nM, below 500 nM and at most 100 nM, respectively.

As for `O=C(N[C@H]1CCC[C@@H](n2c(Nc3ccccn3)nc3cnc(-n4nccn4)cc32)C1)c1ncc(C(F)F)s1` [Example 69, 5-(difluoromethyl)-N-((1S,3R)-3-(2-(pyridin-2-ylamino)-6-(2H-1,2,3-triazol-2-yl)-1H-imidazo[4,5-c]pyridin-1-yl)cyclohexyl)thiazole-2-carboxamide], the concentration for half-maximal inhibition (IC50) against BCAT2 [1] is 100 to 500 nM; against hBCAT1, above 5000 nM; on BCAT2 [2] it was above 1000 nM.
